Experimental data from the RepoRT retention time repository (doi:10.1016/j.foodchem.2015.11.070).

Assay: Thermo Scientific Hypersil GOLD aQ, 100 × 2.1 mm, 1.9 µm, 30 °C, 0.3 mL/min, estimated dead time 0.73 min; A: water + 0.01% formic acid + 4 mM ammonium formate; B: methanol + 0.01% formic acid + 4 mM ammonium formate; gradient (min/%B) 0/5 1/5 8/100 12/100
Settings: stereoisomer not certain

Compound	LC retention time [min]
Cc1ccc(OP(=O)(Oc2ccc(C)cc2)Oc2ccc(C)cc2)cc1	11.9
COP(=S)(OC)SCC(=O)N(C)C=O	8.06
CNC(=O)ON=C(CS(C)=O)C(C)(C)C (stereo not drawn)	6.31
CNC(=O)C=C(C)OP(=O)(OC)OC	6.58
CC(C)(C)c1ccc(CCOc2ncnc3ccccc23)cc1	11.8
CC(C)(C)C(O)C(Oc1ccc(-c2ccccc2)cc1)n1cncn1 (stereo not drawn)	10.3
CCS(=O)CCSP(=O)(OC)OC (stereo not drawn)	6.04
C=CC=CCC1=C(C)C(OC(=O)C2C(C=C(C)C(=O)OC)C2(C)C)CC1=O (stereo not drawn)	10.3
CNC(=O)Oc1ccccc1OC(C)C	8.36
COP(N)(=S)Oc1ccccc1C(=O)OC(C)C (stereo not drawn)	9.04
CCOC1Oc2ccc(OS(C)(=O)=O)cc2C1(C)C (stereo not drawn)	9.42
CCSC(=O)N(CC)C1CCCCC1	10.6
CCOC(=O)N(C)C(=O)CSP(=S)(OCC)OCC	9.84
Cc1ccc(C(C)NC(=O)C(NC(=O)OC(C)C)C(C)C)cc1 (stereo not drawn)	9.73
CC(C)C1(C)N=C(c2ncccc2C(=O)O)NC1=O (stereo not drawn)	6.79
CCC(C)c1cc([N+](=O)[O-])cc([N+](=O)[O-])c1OC(=O)OC(C)C (stereo not drawn)	9.22
CC1=NNC(=O)N(N=Cc2cccnc2)C1	1.58
CCCN(CC)CC1COC2(CCC(C(C)(C)C)CC2)O1 (stereo not drawn)	9.58
CON(C(=O)c1cc(C)oc1C)C1CCCCC1	10.2
CCCCN(CCCC)SN(C)C(=O)Oc1cccc2c1OC(C)(C)C2	11.1
CCOc1ccc(C(C)(C)COCc2cccc(Oc3ccccc3)c2)cc1	11.7
CCCC(=NOCC)C1=C(O)CC(C2CCCSC2)CC1=O (stereo not drawn)	10.5
CCOC(=O)c1cn2nc(OP(=S)(OCC)OCC)cc2nc1C	10.4
CSc1nnc(C(C)(C)C)c(=O)n1N	8.41

Compound	LC retention time [min]
CCOP(=S)(Oc1ccc(C#N)cc1)c1ccccc1 (stereo not drawn)	8.72
CCNc1nc(NC(C)(C)C)nc(SC)n1	9.65
CC1(c2ccc(Oc3ccccc3)cc2)OC(=O)N(Nc2ccccc2)C1=O (stereo not drawn)	10.2
COP(=S)(OC)SCn1nnc2ccccc2c1=O	9.38
CC=C(C)C(=O)OC1CC(OC(C)=O)C2(C(=O)OC)COC3C2C12COC(O)(C(=O)OC)C2C(C)(C12OC1(C)C1CC2OC2OC=CC21O)C3O (stereo not drawn)	8.67
COP(=S)(NC(C)C)Oc1ccccc1C(=O)OC(C)C (stereo not drawn)	8.98
CCCCc1c(C)nc(NCC)nc1OS(=O)(=O)N(C)C	9.87
CCC(C)C1OC2(C=CC1C)CC1CC(CC=C(C)C(OC3CC(OC)C(OC4CC(OC)C(NC)C(C)O4)C(C)O3)C(C)C=CC=C3COC4C(O)C(C)=CC(C(=O)O1)C34O)O2 (stereo not drawn)	11.9
COP(N)(=O)SC (stereo not drawn)	1.58
CCNc1nc(NC(C)C)nc(SC)n1	9.18
Cc1ccc2nc3sc(=O)sc3nc2c1	9.19
CCC(C)Nc1c([N+](=O)[O-])cc(C(C)(C)C)cc1[N+](=O)[O-] (stereo not drawn)	9.23
CCN(CC)c1nc(C)cc(OP(=S)(OC)OC)n1	10.3
COc1cc2c(c3oc(=O)c4c(c13)CCC4=O)C1C=COC1O2 (stereo not drawn)	8.44
CON=C(C(=O)OC)c1ccccc1COc1ccccc1C	10.1
COCC(=O)N(c1c(C)cccc1C)C(C)C(=O)OC (stereo not drawn)	9.04
COC(=O)c1sccc1S(=O)(=O)NC(=O)Nc1nc(C)nc(OC)n1	8.32
COc1nn(CSP(=S)(OC)OC)c(=O)s1	9.26
CCOP(=S)(OCC)Oc1ccc([N+](=O)[O-])cc1	9.21
COP(=O)(OC)Oc1ccc([N+](=O)[O-])cc1	8.12
CNC(=O)Oc1cc(C)c(S(C)(=O)=O)c(C)c1	6.96
COc1cc2c(c3oc(=O)c4c(c13)CCOC4=O)C1C=COC1O2 (stereo not drawn)	8
CCOP(=S)(OCC)SCCS(=O)(=O)CC	8.89
CC(Cc1ccc(C(C)(C)C)cc1)CN1CC(C)OC(C)C1 (stereo not drawn)	9.38

Compound	LC retention time [min]
CCOP(=S)(OCC)OP(=S)(OCC)OCC	10.1
C=C(C)C1Cc2c(ccc3c2OC2COc4cc(OC)c(OC)cc4C2C3=O)O1 (stereo not drawn)	10.3
CNC(=O)Oc1cc(C)c(SC)c(C)c1	8.76
CCC1CCCC(OC2CCC(N(C)C)C(C)O2)C(C)C(=O)C2=CC3C(C=CC4CC(OC5OC(C)C(OC)C(OC)C5OC)CC43)C2CC(=O)O1 (stereo not drawn)	10.3
CCOP(=S)(OCC)SCSP(=S)(OCC)OCC	10.8
CC(C)c1cc(Oc2ccccc2)cc(C(C)C)c1NC(=S)NC(C)(C)C	11
COC(=O)C=C(C)OP(=O)(OC)OC	7.66
CNC(=O)Oc1cccc2c1OC(C)(C)C2	8.41
CCSCCSP(=S)(OC)OC	8.94
CNc1nc(NC(C)C)nc(SC)n1	8.62
CCS(=O)(=O)Cc1ccccc1OC(=O)NC	7
COc1cc2c(c3oc(=O)c4c(c13)CCC4=O)C1CCOC1O2 (stereo not drawn)	8.26
O=c1[nH]c2c(c(=O)n1C1CCCCC1)CCC2	9.11
CNC(=O)Oc1cc(C)c(S(C)=O)c(C)c1 (stereo not drawn)	7.09
CC(C)N(Cc1ccccc1)C(=O)C(C)(C)C	9.96
CCOP(=S)(OCC)SCSC(C)(C)C	7.2
CNC(=O)Oc1cccc(N=CN(C)C)c1	7.91
CCNc1nc(NCC)nc(SC)n1	8.62
C#CCOS(=O)OC1CCCCC1Oc1ccc(C(C)(C)C)cc1 (stereo not drawn)	10.9
Cc1nn(C)c(Oc2ccccc2)c1C=NOCc1ccc(C(=O)OC(C)(C)C)cc1	11.2
CNC(=O)ON=CC(C)(C)S(C)=O (stereo not drawn)	3.06
CCOP(=O)(SC(C)CC)N1CCSC1=O (stereo not drawn)	8.81
CCOP(=S)(OCC)Oc1cc(C)nc(N(CC)CC)n1	10.7
CCOP(=S)(OCC)Oc1cnc2ccccc2n1	10.2

Compound	LC retention time [min]
CCSCCSP(=O)(OC)OC	8.74
CCOP(=S)(Oc1ccc([N+](=O)[O-])cc1)c1ccccc1 (stereo not drawn)	9.71
CCCOC(=O)NCCCN(C)C	5.17
CNC(=O)Oc1cccc2ccccc12	8.61
CNC(=O)Oc1cc(C)cc(C(C)C)c1	9.52
Cc1cc(C)nc(Nc2ccccc2)n1	9.6
CNC(=O)ON=C(C)C(C)SC (stereo not drawn)	7.89
c1ccc2[nH]c(-c3cscn3)nc2c1	6.96
CCOP(=S)(OCC)Oc1ccc(S(C)=O)cc1 (stereo not drawn)	9.1
CC(C)=CC1C(C(=O)OCN2C(=O)C3=C(CCCC3)C2=O)C1(C)C (stereo not drawn)	10.7
COc1cc(OC)nc(NC(=O)NS(=O)(=O)c2ncccc2C(=O)N(C)C)n1	8.01
COP(=S)(OC)SCN1C(=O)c2ccccc2C1=O	9.39
CCOP(=S)(OCC)SCn1nnc2ccccc2c1=O	9.92
COC(=O)NC(=S)Nc1ccccc1NC(=S)NC(=O)OC	8.31
COc1cc2c(c3oc(=O)c4c(c13)CCOC4=O)C1CCOC1O2 (stereo not drawn)	7.8
COC(=O)c1ccccc1S(=O)(=O)NC(=O)Nc1nc(C)nc(OC)n1	8.43
CC#Cc1cc(C)nc(Nc2ccccc2)n1	10
c1ccc(Nc2ccccc2)cc1	6.3
Cc1cc(C)c(C2=C(OC(=O)CC(C)(C)C)C3(CCCC3)OC2=O)c(C)c1	10.9
CCOC(=O)CC(SP(=S)(OC)OC)C(=O)OCC (stereo not drawn)	9.59
CC(COc1ccc(Oc2ccccc2)cc1)Oc1ccccn1 (stereo not drawn)	10.9
CCCCC(C)C(OC(=O)CC(CC(=O)O)C(=O)O)C(CC(C)CCCCCCC(O)CC(O)C(C)N)OC(=O)CC(CC(=O)O)C(=O)O (stereo not drawn)	7.46
CCOP(=S)(OCC)SCCS(=O)CC (stereo not drawn)	8.89
COP(=O)(NC(C)=O)SC (stereo not drawn)	1.58

Compound	LC retention time [min]
CCCN(CCC)C(=O)SCC	10.1
Cc1nc(N(C)C)nc(OC(=O)N(C)C)c1C	7.91
CN(C)NC(=O)CCC(=O)O	1.58
COC(=O)Nc1nc2ccccc2[nH]1	6.3
CCCCOC(=O)N(C)SN(C)C(=O)Oc1cccc2c1OC(C)(C)C2	10.6
CCCC(=NOCC)C1=C(O)CC(CC(C)SCC)CC1=O (stereo not drawn)	10.7
CCOc1ccc2c(c1)C(C)=CC(C)(C)N2	9.07
COCCOc1ccccc1S(=O)(=O)NC(=O)Nc1nc(OC)nc(OC)n1	8.14
COP(=S)(OC)Oc1ccc([N+](=O)[O-])cc1	9.96
CCOC(=O)C(SP(=S)(OC)OC)c1ccccc1 (stereo not drawn)	10.1
CCOP(=O)(SC(C)CC)SC(C)CC (stereo not drawn)	10.5
CSc1nc(NC(C)C)nc(NC(C)C)n1	9.65
CCS(=O)Cc1ccccc1OC(=O)NC (stereo not drawn)	7.09
COCC(=O)N(c1c(C)cccc1C)N1CCOC1=O	8.04
CNC(=O)ON=C(C)C(C)S(C)=O (stereo not drawn)	3.06
CCOc1cc(OP(=S)(OC)OC)nc(CC)n1	10.2
CN(C)c1nc(=O)n(C2CCCCC2)c(=O)n1C	8.61
Cc1cc(=O)[nH]o1	5.67
CCOP(=S)(NC(C)C)Oc1ccccc1C(=O)OC(C)C (stereo not drawn)	7.91
CCNc1nc(NC(C)(C)C)nc(OC)n1	8.88
CNC(=O)ON=C(SC)C(=O)N(C)C	5.75
CNC(=O)ON=C(CS(C)(=O)=O)C(C)(C)C	6.92
